Data as given in patent publication US8445636B2, “Antimicrobial and anticancer lipopeptides” (Yeda Research & Development Co. Ltd., priority 2003, dated 2013).
Non-standard residues stand in square brackets, D forms with d. Residues, ends and D or L forms follow the SMILES beside them. *: point of attachment. Decanoyl = CCCCCCCCCC(=O)*

Tests used:
Format in all cases: cell-based
E. aerogenes ATCC 35029 = conditions: ATCC 35029, pH 7.4
Procedure, shortened: (§1)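 MIC = lowest concentration with 100% growth inhibition, judged from A600 after 18-20 h incubation at 37° C. Bacteria at 1×10^6 CFU/ml in LB (pH 7.4 unless pH 5.5 stated) combined with equal volume of serially 2-fold diluted lipopeptide.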

E. coli ATCC 35218 = conditions: ATCC 35218, pH 7.4
Procedure, shortened: as §1

[1] = system: Pseudomonas aeruginosa ATCC 27853; conditions: ATCC 27853, pH 7.4
Procedure, shortened: as §1

[2] = system: Staphylococcus aureus ATCC 6538P; conditions: ATCC 6538, pH 7.4
Procedure, shortened: as §1

[3] = system: Candida albicans ATCC 10231; experiment: microbe, parasite or virus in culture; conditions: ATCC 10231, pH 7.4
Procedure, shortened: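 In this assay, each strain, prepared at 1×10^4 CFU/ml before mixing, met serial twofold peptide dilutions in RPMI 1640 buffered with 0.165 M MOPS. Unless noted, pH was 7.4; a pH 5.5 condition was also run. After 24-48 h incubation (35 °C, agitated), wells were scored at 620 nm for total inhibition.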

[4] = system: Cryptococcus neoformans ATCC MYA-422; experiment: microbe, parasite or virus in culture; conditions: ATCC MYA-422, pH 7.4
[5] = system: Aspergillus fumigatus ATCC 26430; experiment: microbe, parasite or virus in culture; conditions: ATCC 26430, pH 7.4
[6] = Cytotoxicity, XTT viability, non-cancer cells; conditions: mouse, non-cancer cell line, 24 h incubation, read-out: LC50, 3T3
Method: Prostate cancer cell lines (CL1 and 22RV1; ATCC, USA) were grown in RPMI-1640 supplemented with 10% FCS (Biological Industries, Beit Haemek, Israel). N1H-3T3 mouse fibroblast cell line (ATCC, USA) was grown in DMEM supplemented with 10% bovine serum. To test cytotoxicity against the cancer cells, aliquots of medium containing 1×10^4 cells were distributed into a 96-well plate (Falcon). After one day, the media were replaced with 90 μl of fresh media and 10 μl of a solution containing different concentrations of the peptides. The plate was then incubated for 24 h before adding to each well 50 μl of XTT reaction solution (Biological Industries, Beit Haemek, Israel); viability was determined as previously described (Papo et al., (2003) J. Biol. Chem. 278:21018-23). The LC50 (concentration at which 50% of the cells die) for each peptide was obtained from the dose-dependent cell viability curves.

SMILES	Minimal Inhibitory Concentration, E. aerogenes ATCC 35029 (E. aerogenes ATCC 35029) [µM]	Minimal Inhibitory Concentration, E. coli ATCC 35218 (E. coli ATCC 35218) [µM]	Minimal Inhibitory Concentration, P. aeruginosa ATCC 27853 [1] [µM]	Minimal Inhibitory Concentration, S. aureus ATCC 6538P [2] [µM]	Minimal Inhibitory Concentration, C. albicans ATCC 10231 [3] [µM]	Minimal Inhibitory Concentration, C. neoformans ATCC MYA-422 [4] [µM]	Minimal Inhibitory Concentration, A. fumigatus ATCC 26430 [5] [µM]	CC50 at 24 h [6] [µM]
CCCCCCCCCC(=O)N[C@H](CC(C)C)C(=O)N[C@@H](CCCCN)C(=O)N[C@@H](CCCCN)C(=O)N[C@H](CC(C)C)C(=O)N[C@H](CC(C)C)C(=O)N[C@@H](CCCCN)C(=O)N[C@@H](CCCCN)C(=O)N[C@H](CC(C)C)C(=O)N[C@H](CC(C)C)C(=O)N[C@@H](CCCCN)C(=O)N[C@@H](CCCCN)C(=O)N[C@H](CC(C)C)C(N)=O [lipopeptide 21, (CH3-(CH2)8-CO-)-D-Leu-Lys-Lys-D-Leu-D-Leu-Lys-Lys-D-Leu-D-Leu-Lys-Lys-D-Leu-NH2] (Decanoyl-[dL]KK[dL][dL]KK[dL][dL]KK[dL]-NH2)	50	12.5	12.5	6.25	25	1.56	12.5	
CC(C)C[C@@H](N)C(=O)N[C@@H](CCCCN)C(=O)N[C@@H](CCCCN)C(=O)N[C@H](CC(C)C)C(=O)N[C@H](CC(C)C)C(=O)N[C@@H](CCCCN)C(=O)N[C@@H](CCCCN)C(=O)N[C@H](CC(C)C)C(=O)N[C@H](CC(C)C)C(=O)N[C@@H](CCCCN)C(=O)N[C@@H](CCCCN)C(=O)N[C@H](CC(C)C)C(N)=O [[D]-L6K6, LKKLLKKLLKKL, reference compound] (H-[dL]KK[dL][dL]KK[dL][dL]KK[dL]-NH2; N-terminus assumed)	>50	50	>50	>50	>50	>50	>50	> 100
